Source: US20150218173A1, “SUBSTITUTED INDAZOL-PYRROLOPYRIMIDINES USEFUL IN THE TREATMENT OF HYPERFOLIFERATIVE DISORDERS” (BAYER PHARMA AKTIENGESELLSCHAFT, priority 2012, published 2015)

Target: T1, human full-length MKNK1 (Homo sapiens, UniProt Q9BUB5, T385D)
T1 construct: GST (N); purchased Carna Biosciences 02-145; host or cells: insect cells (baculovirus expression system)
Experiment: MKNK1 kinase high ATP assay (TR-FRET)
Type: biochemical
Conditions: high ATP (2 mM final), 15 min preincubation with enzyme
Protocol: MKNK1-inhibitory activity at high ATP of compounds of the present invention after their preincubation with MKNK1 was quantified employing the TR-FRET-based MKNK1 high ATP assay as described in the following paragraphs.
A recombinant fusion protein of Glutathione-S-Transferase (GST, N-terminally) and human full-length MKNK1 (amino acids 1-424 and T344D of accession number BAA 19885.1), expressed in insect cells using baculovirus expression system and purified via glutathione sepharose affinity chromatography, was purchased from Carna Biosciences (product no 02-145) and used as enzyme. As substrate for the kinase reaction the biotinylated peptide biotin-Ahx-IKKRKLTRRKSLKG (C-terminus in amide form) was used, which can be purchased e.g. from the company Biosyntan (Berlin-Buch, Germany).
For the assay 50 nL of a 100 fold concentrated solution of the test compound in DMSO was pipetted into a black low volume 384 well microtiter plate (Greiner Bio-One, Frickenhausen, Germany), 2 μL of a solution of MKNK1 in aqueous assay buffer [50 mM HEPES pH 7.5, 5 mM MgCl2, 1.0 mM dithiothreitol, 0.005% (v/v) Nonidet-P40 (Sigma)] was added and the mixture was incubated for 15 min at 22° C. to allow pre-binding of the test compounds to the enzyme before the start of the kinase reaction. Then the kinase reaction was started by the addition of 3 μL of a solution of adenosine-tri-phosphate (ATP, 3.3 mM=>final conc. in the 5 μL assay volume is 2 mM) and substrate (0.1 μM=>final conc. in the 5 μL assay volume is 0.06 μM) in assay buffer and the resulting mixture was incubated for a reaction time of 30 min at 22° C. The concentration of MKNK1 was adjusted depending of the activity of the enzyme lot and was chosen appropriate to have the assay in the linear range, typical concentrations were in the range of 0.003 μg/mL. The reaction was stopped by the addition of 5 μL of a solution of TR-FRET detection reagents (5 nM streptavidine-XL665 [Cisbio Bioassays, Codolet, France] and 1 nM anti-ribosomal protein S6 (pSer236)-antibody from Invitrogen [#44921G] and 1 nM LANCE EU-W1024 labeled ProteinG [Perkin-Elmer, product no. AD0071]) in an aqueous EDTA-solution (100 mM EDTA, 0.1% (w/v) bovine serum albumin in 50 mM HEPES pH 7.5).
The resulting mixture was incubated for 1 h at 22° C. to allow the formation of complex between the phosphorylated biotinylated peptide and the detection reagents. Subsequently the amount of phosphorylated substrate was evaluated by measurement of the resonance energy transfer from the Eu-chelate to the streptavidine-XL. Therefore, the fluorescence emissions at 620 nm and 665 nm after excitation at 350 nm were measured in a TR-FRET reader, e.g. a Rubystar (BMG Labtechnologies, Offenburg, Germany) or a Viewlux (Perkin-Elmer). The ratio of the emissions at 665 nm and at […] was taken as the measure for the amount of phosphorylated substrate. The data were normalised (enzyme reaction without inhibitor=0% inhibition, all other assay components but no enzyme=100% inhibition).

T1 sequence (Q9BUB5 1-424 isoform Q9BUB5-2 T344D): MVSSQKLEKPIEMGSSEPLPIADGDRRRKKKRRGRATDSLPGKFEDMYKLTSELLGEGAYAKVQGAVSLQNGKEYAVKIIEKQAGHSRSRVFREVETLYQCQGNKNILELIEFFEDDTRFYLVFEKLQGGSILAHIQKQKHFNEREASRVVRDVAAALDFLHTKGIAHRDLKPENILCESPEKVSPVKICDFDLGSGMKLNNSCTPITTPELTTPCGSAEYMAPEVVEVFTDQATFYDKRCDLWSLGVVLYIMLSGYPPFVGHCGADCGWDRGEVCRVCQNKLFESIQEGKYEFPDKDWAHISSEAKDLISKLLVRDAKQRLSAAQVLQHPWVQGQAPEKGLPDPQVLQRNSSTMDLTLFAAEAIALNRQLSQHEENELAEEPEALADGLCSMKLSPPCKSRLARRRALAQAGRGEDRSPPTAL

| IC50 [nM] | SMILES |
| --- | --- |
| 29 | CCc1c[nH]c2ncnc(Nc3ccc4[nH]ncc4c3)c12 [Example 40, 5-Ethyl-N-(1H-indazol-5-yl)-7H-pyrrolo[2,3-d]pyrimidin-4-amine] |
| 37 | OCc1c[nH]c2ncnc(Nc3ccc4[nH]ncc4c3)c12 [Example 41, [4-(1H-indazol-5-ylamino)-7H-pyrrolo[2,3-d]pyrimidin-5-yl]methanol] |
| 58 | C[C@@H]1COCCN1C(=O)c1[nH]c2ncnc(Nc3ccc4[nH]ncc4c3)c2c1Br [Example 42, [5-Bromo-4-(1H-indazol-5-ylamino)-7H-pyrrolo[2,3-d]pyrimidin-6-yl][(3R)-3-methylmorpholin-4-yl]methanone] |
| 75 | C[C@H]1COCCN1C(=O)c1[nH]c2ncnc(Nc3ccc4[nH]ncc4c3)c2c1Br [Example 43, [5-Bromo-4-(1H-indazol-5-ylamino)-7H-pyrrolo[2,3-d]pyrimidin-6-yl][(3S)-3-methylmorpholin-4-yl]methanone] |
| 48 | O=C(c1[nH]c2ncnc(Nc3ccc4[nH]ncc4c3)c2c1Br)N1CCOCC1 [Example 44, [5-Bromo-4-(1H-indazol-5-ylamino)-7H-pyrrolo[2,3-d]pyrimidin-6-yl](morpholin-4-yl)methanone] |
| 45 | O=C(c1[nH]c2ncnc(Nc3ccc4[nH]ncc4c3)c2c1Br)N1CCCCC1 [Example 45, [5-Bromo-4-(1H-indazol-5-ylamino)-7H-pyrrolo[2,3-d]pyrimidin-6-yl](piperidin-1-yl)methanone] |
